From patent US20040192686A1, “Benzoazine mono-N-oxides and benzoazine 1,4 dioxides and compositions therefrom for the therapeutic use in cancer treatments” (Auckland Uniservices Limited, priority 2003, published 2004)
Converted amounts (≈) assume the structure as drawn. Where two headings read alike, the source gives them in different places. Blank lines part the entries; values can stand above or below the compound they belong to.

Key:
HT29 cells [1] = test: TPZ potentiation test: IC50 of TPZ with and without potentiator, anoxic HT29 cells; type: cell-based, human; conditions: 4 hr anoxic exposure of HT29 cells
[2] = test system: HT29 colon carcinoma cells; test: IC50 assay of potentiator alone, HT29 cells, 4 hr anoxic exposure, sulphorhodamine B staining; type: cell-based, human; conditions: cell density by sulphorhodamine B five days after washing out
[3] = Approximate solubility limit in Alpha MEM culture medium containing 5% fetal calf serum; type: physicochemical; conditions: dilution from DMSO stock solutions; for solubility: plasma or biological fluid, kinetic from dmso stock
[4] = test system: HT29 human colon carcinoma cells; test: Cytotoxicity (plating efficiency) in stirred single cell suspensions of HT29 cells, anoxic or aerobic
Text: Cultures were maintained at <10 ppm O2 under a continuously-flowing stream of 5% CO2 in nitrogen and were sampled at intervals to determine plating efficiency.
Experimental conditions were as for FIG. 2, except that the gas phase was 5% CO2 in air. Values are means and error bars are ranges for duplicate cultures.
Drug exposure time was 1 hr. Error bars represent the range for duplicate determinations.

HT29 cells [5] = test: Radiosensitisation of anoxic HT29 cells; type: cell-based, human; conditions: 0.6 mM of each agent; anoxic HT29 cells irradiated 5 min after drug addition
Protocol: Anoxic cell suspensions were irradiated 5 min after addition of pre-equilibrated anoxic drug solutions. Data are shown for duplicate determinations, and are fitted using a linear-quadratic model

[6] = conc of potentiator 3 mM (compound 56: approximate, slight precipitation)
[7] = Homo sapiens, HT-29, 4 hr exposure under anoxic conditions

- TPR (TPZ potentiation ratio) = TPZ IC50 without potentiator/TPZ IC50 with potentiator (HT29 cells [1]; conc of potentiator 0.3 mM): 1.2
- IC50 ([2]; 4 hr exposure under anoxic conditions): 830 µM
- Solubility limit [3]: 3000 µM (≈ 742 µg/mL)
SMILES: CN(C)CCCNc1nc2ccccc2[n+]([O-])n1 [Compound 44, N^1-(1-Oxido-1,2,4-benzotriazin-3-yl)-N^3,N^3-dimethyl-1,3-propan diamin]

- TPR (TPZ potentiation ratio) = TPZ IC50 without potentiator/TPZ IC50 with potentiator (HT29 cells [1]; conc of potentiator 1.0 mM): 13.9
- IC50 [2, 7]: > 1000 µM
- solubility [3]: 1000 µM (≈ 233 µg/mL)
SMILES: CN(C)CCNc1nc2ccccc2[n+]([O-])n1 [Compound 37, N^1,N^1-Dimethyl-N^2-(1-oxido-1,2,4-benzotriazin-3-yl)-1,2-ethanediamine]

- melting point: 170 to 171 °C
SMILES: COc1ccc2c(c1)nc(NCCN1C(C)CCCC1C)n[n+]2[O-] (stereo not shown) [Compound 141, N-[2-(2,6-Dimethyl-1-piperidinyl)ethyl]-6-methoxy-1,2,4-benzotriazin-3-amine 1-oxide]

- melting point: 60 to 62 °C
SMILES: CCN(CC)CCNc1nc2cc(C(C)C)ccc2[n+]([O-])n1 [Compound 148, N^1-(6-Isopropyl-1-oxido-1,2,4-benzotriazin-3-yl)-N^2,N^2-diethyl-1,2-ethanediamine]

- melting point: 198 to 202 °C
SMILES: Cc1ccc2c(c1)nc(NCCO)n[n+]2[O-] [Compound 74, 2-[(6-Methyl-1-oxido-1,2,4-benzotriazin-3-yl)amino]ethanol]

- melting point: 136 to 138 °C
SMILES: CCOC(=O)CNc1nc2ccccc2[n+]([O-])n1 [Compound 20, Ethyl [(1-oxido-1,2,4-benzotriazin-3-yl)amino]acetate]

- melting point: 89 to 91 °C
SMILES: CCN(CC)CCNc1nc2cccc(C)c2[n+]([O-])n1 [Compound 162, N^1,N^1-Diethyl-N^2-(8-methyl-1-oxido-1,2,4-benzotriazin-3-yl)-1,2-ethanediamine]

- melting point: 130 to 132 °C
SMILES: CCN(CC)CCNc1nc2cc(C)c(C)cc2[n+]([O-])n1 [Compound 166, N^1-(6,7-Dimethyl-1-oxido-1,2,4-benzotriazin-3-yl)-N^2,N^2-diethyl-1,2-ethanediamine]

- TPR (TPZ potentiation ratio) = TPZ IC50 without potentiator/TPZ IC50 with potentiator (HT29 cells [1]; conc of potentiator 1.0 mM): 6.1
- IC50 [2, 7]: 2300 µM
- solubility [3]: 3000 µM (≈ 658 µg/mL)
SMILES: CNCCNc1nc2ccccc2[n+]([O-])n1 [Compound 130, N^1-Methyl-#f-(1-oxido-1,2,4-benzotriazin-3-yl)-1,2-ethanediamine]

- melting point: 226 to 228 °C
SMILES: Cc1cc2nc(NCCNC(=O)OC(C)(C)C)n[n+]([O-])c2cc1C [Compound 105, tert-Butyl 2-[(6,7-dimethyl-1-oxido-1,2,4-benzotriazin-3-yl)amino]ethylcarbamate]

- melting point: 175 to 178 °C
SMILES: Cc1cc2nc(NCCN(C)C)n[n+]([O-])c2cc1C [Compound 106, N^1-(6,7-Dimethyl-1-oxido-1,2,4-benzotriazin-3-yl)-N^2,N^2-dimethyl-1,2-ethanediamine]

Continued, compound first:

SMILES: [O-][n+]1nc(CCO)nc2ccccc21 [Compound 61, 3-(2-Hydroxyethyl)-1,2,4-benzotriazine 1-oxide]
- TPR (TPZ potentiation ratio) = TPZ IC50 without potentiator/TPZ IC50 with potentiator (HT29 cells [1]; [6]): 1.2
- IC50 [2, 7]: > 3000 µM
- solubility [3]: 3000 µM (≈ 574 µg/mL)

SMILES: CCc1nc2ccccc2[n+]([O-])n1 [Compound 56, 3-Ethyl-1,2,4-benzotriazine 1-oxide]
- TPR (TPZ potentiation ratio) = TPZ IC50 without potentiator/TPZ IC50 with potentiator (HT29 cells [1]; [6]): 1.3
- IC50 [2, 7]: > 3000 µM
- solubility [3]: 3000 µM (≈ 526 µg/mL)

SMILES: COc1nc2ccccc2[n+]([O-])n1 [Compound 71, 3-Methoxy-1,2,4-benzotriazine 1-oxide]
- TPR (TPZ potentiation ratio) = TPZ IC50 without potentiator/TPZ IC50 with potentiator (HT29 cells [1]; conc of potentiator 0.3 mM): 3.3
- IC50 [2, 7]: > 300 µM
- solubility [3]: 300 µM (≈ 53.1 µg/mL)

SMILES: N#CCNc1nc2ccccc2[n+]([O-])n1 [Compound 25, 2-[(1-Oxido-1,2,4-benzotriazin-3-yl)amino]acetonitrile]
- TPR (TPZ potentiation ratio) = TPZ IC50 without potentiator/TPZ IC50 with potentiator (HT29 cells [1]; conc of potentiator 0.2 mM): 1.9
- IC50 [2, 7]: > 300 µM
- solubility [3]: 300 µM (≈ 60.4 µg/mL)

SMILES: COCC(O)Cn1ccnc1[N+](=O)[O-] (stereo not shown) [misonidazole, reference compound]
- Relative dose potency for potentiation of the hypoxic cytotoxicity of TPZ ([4]; TPZ 30 μM, anoxic HT29 cells 5×10^5/ml, drug exposure 1 hr): lower dose potency than SR 4317
- Relative potency for radiosensitization of hypoxic HT29 cells (HT29 cells [5]): misonidazole>metronidazole=SR4317

SMILES: Cl.[O-][n+]1nc(CCCN2CCCCC2)nc2ccccc21
- melting point: 151 to 153 °C

SMILES: C=CCc1nc2ccccc2[n+]([O-])n1 [Compound 60, 3-Allyl-1,2,4-benzotriazine 1-oxide]
- melting point: 57 to 58 °C

SMILES: COc1cccc2nc(N)n[n+]([O-])c12 (hydrate or solvate) [Compound 3a, 8-Methoxy-1,2,4-benzotriazin-3-amine 1-oxid]
- melting point: 235 to 239 °C

SMILES: Cc1cc(C)c2c(c1)nc(Cl)n[n+]2[O-] [Compound 108, 3-Chloro-6,8-dimethyl-1,2,4-benzotriazine 1-oxide]
- melting point: 120 to 122 °C

SMILES: O=C(O)CNc1nc2ccccc2[n+]([O-])n1 [Compound 21, [(1-Oxido-1,2,4-benzotriazin-3-yl)amino]acetic acid]
- melting point: 217 to 219 °C

SMILES: [O-][n+]1nc(-c2ccccc2)nc2ccccc21 [Compound 57, 3-Phenyl-1,2,4-benzotriazine 1-oxide]
- melting point: 125 to 127 °C

SMILES: Nc1nc2c(Cl)cccc2[n+]([O-])n1 [Compound 3aa, 5-Chloro-1,2,4-benzotriazin-3-amine 1-oxide]
- melting point: 251 to 254 °C

SMILES: Nc1nc2cc(C(F)(F)F)ccc2[n+]([O-])n1 [Compound 3v, 6-Trifluoromethyl-1,2,4-benzotriazin-3-amine 1-oxide]
- melting point: 280 to 284 °C (dec.)

SMILES: COCCOc1ccc2nc(Cl)n[n+]([O-])c2c1 [Compound 96, 3-Chloro-7-(2-methoxyethoxy)-1,2,4-benzotriazine 1-oxide]
- melting point: 121 to 125 °C

SMILES: COc1ccc2c(c1)nc(Cl)n[n+]2[O-] [Compound 83, 3-Chloro-6-methoxy-1,2,4-benzotriazine 1-oxide]
- melting point: 196 to 199 °C

SMILES: Cc1cccc2nc(N)n[n+]([O-])c12 [Compound 3b, 8-Methyl-1,2,4-benzotriazin-3-amine 1-oxide]
- melting point: 265 °C (dec.)

SMILES: CSc1ccc2nc(N)n[n+]([O-])c2c1 [Compound 3n, 7-(Methylsulfanyl)-1,2,4-benzotriazin-3-amine 1-oxide]
- melting point: 245 to 247 °C

SMILES: Cc1ncc([N+](=O)[O-])n1CCO [metronidazole, reference compound]
- Relative dose potency for potentiation of the hypoxic cytotoxicity of TPZ [4]: lower dose potency than SR 4317
- Relative potency for radiosensitization of hypoxic HT29 cells (HT29 cells [5]): misonidazole>metronidazole=SR4317

SMILES: CN(C)c1ccc2nc(N)n[n+]([O-])c2c1 [Compound 11, N^7,N^7-Dimethyl-1,2,4-benzotriazine-3,7-diamine 1-oxide]
- melting point: 231 to 233 °C
